A word on the IC50: it is the point on the concentration scale where inhibition reaches its midpoint.

Read-outs that look alike come from different tables or passages of the source.

Data on 16 compounds can be found in patent US10821115B2, “Compounds that inhibit Mcl-1 protein” (priority 2017, dated 2020).

The test system of the experiment is human multiple myeloma cell line, OPM-2. Description: Cell viability assay (OPM-2 10 FBS), CellTiter-Glo. The experiment is classed as cell-based. The method in brief:
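IC50 values come from 4-parameter logistic fits of luminescence signals reflecting cell viability. Treatment lasted 16 h at 37 °C in complete medium with 10% FBS, starting from 3000 cells/well.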
On the technique in general: In ATP-based viability assays light output follows the ATP content of the culture.

The mark [1] stands for this setting: Homo sapiens, OPM-2, 16 h, read-out: OPM-2 10% FBS IC50 IP, OPM-2 cells, 10% FBS, 16 h, CellTiter-Glo.
[2] abbreviates: Homo sapiens, OPM-2, 16 h, read-out: OPM-2 10% FBS IC50 IP, OPM-2 cells, 10% FBS, 16 h incubation.
The mark [3] stands for this setting: read-out: OPM-2 10% FBS IC50 IP, OPM-2 cells, 10% FBS, 16 h incubation.
Where [4] appears, read: read-out: OPM-2 10% FBS IC50 IP, OPM-2 cells, 10% FBS, 16 h, CellTiter-Glo.

Regarding `CCN(CC)C(=O)C[C@]1(OC)/C=C/C[C@H](C)[C@@H](C)S(=O)(=O)NC(=O)c2ccc3c(c2)N(C[C@@H]2CC[C@H]21)C[C@@]1(CCCc2cc(Cl)ccc21)CO3` [Example 100347, 2-((1S,3′R,6′R,7′S,8′E,11′S,12′R)-6-chloro-7′-methoxy-11′,12′-dimethyl-13′,13′-dioxido-15′-oxo-3,4-dihydro-2H-spiro[naphthalene-1,22′-[20]oxa[13]thia[1,14]diazatetracyclo [14.7.2.0~3,6~.0~19,24~]pentacosa[8,16,18,24]tetraen]-7′-yl)-N,N-diethylacetamide], the IC50 under setting [1] came to 1080 nM.

Turning to `CCO[C@]1(CN2CCN3CCCC[C@@H]3C2)/C=C/C[C@H](C)[C@@H](CCOC)S(=O)(=O)NC(=O)c2ccc3c(c2)N(C[C@@H]2CC[C@H]21)C[C@@]1(CCCc2cc(Cl)ccc21)CO3` [Example 15, (1S,3′R,6′R,7′R,8′E,11′S,12′R)-6-chloro-7′-ethoxy-12′-(2-methoxyethyl)-11′-methyl-7′-((9aR)-octahydro-2H-pyrido[1,2-a]pyrazin-2-ylmethyl)-3,4-dihydro-2H,15′H-spiro[naphthalene-1,22′-[20]oxa[13]thia[1,14]diazatetracyclo[14.7.2.0-3,6˜.0˜19,24˜]pentacosa[8,16,18,24]tetraen]-15′-one 13′,13′-dioxide], the IC50 under setting [2] is 71 nM.

Consider `CO[C@@]1(CC(=O)C2CC2)/C=C/C[C@H](C)[C@@H](C)S(=O)(=O)NC(=O)c2ccc3c(c2)N(C[C@@H]2CC[C@H]21)C[C@@]1(CCCc2cc(Cl)ccc21)CO3` [Example 100443, (1S,3′R,6′R,7′S,8′E,11′S,12′R)-6-chloro-7′-(2-cyclopropyl-2-oxoethyl)-7′-methoxy-11′,12′-dimethyl-3,4-dihydro-2H,15′H-spiro[naphthalene-1,22′-[20]oxa[13]thia[1,14]diazatetracyclo [14.7.2.0~3,6~.0~19,24~]pentacosa[8,16,18,24]tetraen]-15′-one 13′,13′-dioxide], for which the IC50 under setting [1] is 156 nM.

Consider `CO[C@]1(CN2CCN3CCN(C(C)=O)C[C@@H]3C2)/C=C/C[C@H](C)[C@@H](C)S(=O)(=O)NC(=O)c2ccc3c(c2)N(C[C@@H]2CC[C@H]21)C[C@@]1(CCCc2cc(Cl)ccc21)CO3` (single isomer, unassigned) [Example 229], for which the IC50 under setting [3] is 96 nM.

For the compound `CO[C@]1(c2cccnc2F)/C=C/C[C@H](C)[C@@H](C)S(=O)(=O)NC(=O)c2ccc3c(c2)N(C[C@@H]2CC[C@H]21)C[C@@]1(CCCc2cc(Cl)ccc21)CO3` [Example 100324, (1S,3′R,6′R,7′R,8′E,11′S,12′R)-6-chloro-7′-(2-fluoro-3-pyridinyl)-7′-methoxy-11′,12′-dimethyl-3,4-dihydro-2H,15′H-spiro[naphthalene-1,22′-[20]oxa[13]thia[1,14]diazatetracyclo [14.7.2.0~3,6~.0~19,24~]pentacosa[8,16,18,24]tetraen]-15′-one 13′,13′-dioxide], the IC50 under setting [4] was 1170 nM.

Turning to `CO[C@@]1(CC(=O)N(C)C)/C=C/C[C@H](C)[C@@H](C)S(=O)(=O)NC(=O)c2ccc3c(c2)N(C[C@@H]2CC[C@H]21)C[C@@]1(CCCc2cc(Cl)ccc21)CO3` [Example 100135, 2-((1S,3′R,6′R,7′S,8′E,11′S,12′R)-6-chloro-7′-methoxy-11′,12′-dimethyl-13′,13′-dioxido-15′-oxo-3,4-dihydro-2H-spiro[naphthalene-1,22′-[20]oxa[13]thia[1,14]diazatetracyclo [14.7.2.0~3,6~.0~19,24~]pentacosa[8,16,18,24]tetraen]-7′-yl)-N,N-dimethylacetamide], the IC50 under setting [4] was 161 nM.

Turning to `C[C@@H]1[C@@H](C)C/C=C/C(O)(CN2CCN3CCCC[C@@H]3C2)[C@@H]2CC[C@H]2CN2C[C@@]3(CCCc4cc(Cl)ccc43)COc3ccc(cc32)C(=O)NS1(=O)=O` (single isomer, unassigned) [Example 242], the IC50 under setting [3] was 791 nM.

`CCO[C@@]1(CN2CCC(N(CCOC)CCOC)CC2)/C=C/C[C@H](C)[C@@H](C)S(=O)(=O)NC(=O)c2ccc3c(c2)N(C[C@@H]2CC[C@H]21)C[C@@]1(CCCc2cc(Cl)ccc21)CO3` [Example 312, (1S,3′R,6′R,7′S,8′E,11′S,12′R)-7′-((4-(bis(2-methoxyethyl)amino)-1-piperidinyl)methyl)-6-chloro-7′-ethoxy-11′,12′-dimethyl-3,4-dihydro-2H,15′H-spiro[naphthalene-1,22′-[20]oxa[13]thia[1,14]diazatetracyclo [14.7.2.0~3,6~.0~19,24~]pentacosa[8,16,18,24]tetraen]-15′-one 13′,13′-dioxide]: the IC50 under setting [2] was determined as 408 nM.

With `CO[C@@]1(C#CCCN2CCS(=O)(=O)CC2)/C=C/C[C@H](C)[C@@H](C)S(=O)(=O)NC(=O)c2ccc3c(c2)N(C[C@@H]2CC[C@H]21)C[C@@]1(CCCc2cc(Cl)ccc21)CO3` [Example 100456, (1S,3′R,6′R,7′S,8′E,11′S,12′R)-6-chloro-7′-(4-(1,1-dioxido-4-thiomorpholinyl)-1-butyn-1-yl)-7′-methoxy-11′,12′-dimethyl-3,4-dihydro-2H,15′H-spiro[naphthalene-1,22′-[20]oxa[13]thia[1,14]diazatetracyclo [14.7.2.0~3,6~.0~19,24~]pentacosa[8,16,18,24]tetraen]-15′-one 13′,13′-dioxide], the IC50 under setting [4] is 1230 nM.

Turning to `COC(=O)[C@H](NC(=O)C[C@]1(OC)/C=C/C[C@H](C)[C@@H](C)S(=O)(=O)NC(=O)c2ccc3c(c2)N(C[C@@H]2CC[C@H]21)C[C@@]1(CCCc2cc(Cl)ccc21)CO3)[C@@H](C)O` [Example 100581, methyl N-(((1S,3′R,6′R,7′S,8′E,11′S,12′R)-6-chloro-7′-methoxy-11′,12′-dimethyl-13′,13′-dioxido-15′-oxo-3,4-dihydro-2H-spiro[naphthalene-1,22′-[20]oxa[13]thia[1,14]diazatetracyclo [14.7.2.0~3,6~.0~19,24~]pentacosa[8,16,18,24]tetraen]-7′-yl)acetyl)-D-allothreoninate], the IC50 under setting [1] was found to be 1540 nM.

Turning to `C[C@@H]1[C@@H](C)C/C=C/[C@]2(CN(Cc3ccccc3)CCO2)[C@@H]2CC[C@H]2CN2C[C@@]3(CCCc4cc(Cl)ccc43)COc3ccc(cc32)C(=O)NS1(=O)=O` [Example 138, (1 S,3′R,6′R,7′R,8′E, 11′S,12′R)-4″-benzyl-6-chloro-11′,12′-dimethyl-3,4-dihydro-2H,15′H-dispiro[naphthalene-1,22′-[20]oxa[13]thia[1,14]diazatetracyclo[14.7.2.0-3,6˜.0˜19,24˜]pentacosa[8,16,18,24]tetraene-7′,2″-[1,4]oxazinan]-15′-one 13′,13′-dioxide], the IC50 under setting [2] is over 33300 nM.

For `COC[C@@]1(OC)/C=C/C[C@H](C)[C@@H](C)S(=O)(=O)NC(=O)c2ccc3c(c2)N(C[C@@H]2CC[C@H]21)C[C@@]1(CCCc2cc(Cl)ccc21)CO3` [Example 100464, (1S,3′R,6′R,7′R,8′E,11′S,12′R)-6-chloro-7′-methoxy-7′-(methoxymethyl)-11′,12′-dimethyl-3,4-dihydro-2H,15′H-spiro[naphthalene-1,22′-[20]oxa[13]thia[1,14]diazatetracyclo [14.7.2.0~3,6~.0~19,24~]pentacosa[8,16,18,24]tetraen]-15′-one 13′,13′-dioxide], under setting [1], the IC50 came to 1530 nM.

For `CO[C@@]1(CC(=O)NCc2ncco2)/C=C/C[C@H](C)[C@@H](C)S(=O)(=O)NC(=O)c2ccc3c(c2)N(C[C@@H]2CC[C@H]21)C[C@@]1(CCCc2cc(Cl)ccc21)CO3` [Example 100577, 2-((1S,3′R,6′R,7′S,8′E,11′S,12′R)-6-chloro-7′-methoxy-11′,12′-dimethyl-13′,13′-dioxido-15′-oxo-3,4-dihydro-2H-spiro[naphthalene-1,22′-[20]oxa[13]thia[1,14]diazatetracyclo [14.7.2.0~3,6~.0~19,24~]pentacosa[8,16,18,24]tetraen]-7′-yl)-N-(1,3-oxazol-2-ylmethyl)acetamide], the IC50 under setting [1] was 2020 nM.

Turning to `CCO[C@]1(CN2CCN(C(COC)COC)CC2)/C=C/C[C@H](C)[C@@H](C)S(=O)(=O)NC(=O)c2ccc3c(c2)N(C[C@@H]2CC[C@H]21)C[C@@]1(CCCc2cc(Cl)ccc21)CO3` [Example 116, (1S,3′R,6′R,7′R,8′E,11′S,12′R)-6-chloro-7′-ethoxy-7′-((4-(2-methoxy-1-(methoxymethyl)ethyl)-1-piperazinyl)methyl)-11′,12′-dimethyl-3,4-dihydro-2H,15′H-spiro[naphthalene-1,22′-[20]oxa[13]thia[1,14]diazatetracyclo [14.7.2.0~3,6~.0~19,24~]pentacosa[8,16,18,24]tetraen]-15′-one 13′,13′-dioxide], under setting [2], the IC50 was found to be 387 nM.

For the compound `C[C@@H]1[C@@H](C)CCC[C@@](CO)(CN2CCOCC2)[C@@H]2CC[C@H]2CN2C[C@@]3(CCCc4cc(Cl)ccc43)COc3ccc(cc32)C(=O)NS1(=O)=O` [Example 100341, (1S,3′R,6′R,7′S,11′S,12′R)-6-chloro-7′-(hydroxymethyl)-11′,12′-dimethyl-7′-(4-morpholinylmethyl)-3,4-dihydro-2H,15′H-spiro[naphthalene-1,22′-[20]oxa[13]thia[1,14]diazatetracyclo [14.7.2.0~3,6~.0~19,24~]pentacosa[16,18,24]trien]-15′-one 13′,13′-dioxide], the IC50 under setting [1] came to 1940 nM.

On to `CCO[C@]1(CN2CCN(C(C)(C)C)CC2)/C=C/C[C@H](C)[C@@H](C)S(=O)(=O)NC(=O)c2ccc3c(c2)N(C[C@@H]2CC[C@H]21)C[C@@]1(CCCc2cc(Cl)ccc21)CO3` [Example 6, (1S,3′R,6′R,7′R,8′E,11′S,12′R)-7′-((4-TERT-BUTYL-1-PIPERAZINYL)METHYL)-6-CHLORO-7′-ETHOXY-11′,12′-DIMETHYL-3,4-DIHYDRO-2H,15′H-SPIRO[NAPHTHALENE-1,22′-[20]OXA[13]THIA[1,14]DIAZATETRACYCLO[14.7.2.0-3,6˜.0˜19,24˜]PENT ACOSA[8,16,18,24]TETRAEN]-15′-ONE 13′,13′-DIOXIDE], for which, under setting [2], the IC50 worked out at 76 nM.
